Test results as given in patent US11807640B1 (priority 2023, dated 2023).
Values after ≈ are worked out from the molar mass of the structure shown.

Tested on: Mycobacterium tuberculosis (MTB) H37Rv
Test: Resazurin Microplate Assay (REMA), anti-tubercular screening, H37Rv
Format: cell-based
Settings: 192 h, Middlebrook 7H9 broth, 37° C., 8 days incubation then resazurin overnight, read-out: MIC (μg/mL) H37Rv

## CCOC(=O)c1cc(C(=O)c2ccc(F)cc2)n2ccc(C(=O)OC(C)C)cc12 [KNV-4, 1-Ethyl 7-isopropyl 3-(4-fluorobenzoyl)indolizine-1,7-dicarboxylate]
  MIC: 1 µg/mL (≈ 2.52 µM)

## COC(=O)c1c(C(=O)OC)c2cc(C(=O)OC(C)C)ccn2c1C(=O)c1ccc(Br)cc1 [KNV-7, 7-Isopropyl 1,2-dimethyl 3-(4-bromobenzoyl)indolizine-1,2,7-tricarboxylate]
  MIC: 1 µg/mL (≈ 1.99 µM)
